# In patent US20120157401A1, “METHODS FOR TREATING NEUROFIBROMATOSIS” (PTC Therapeutics, Inc., priority 2009, published 2012):
# System: hypoxia-inducible endogenous VEGF expression
# Experiment: Hypoxia-inducible endogenous VEGF expression ELISA in HeLa cells, dose-response EC50 (Table 3)
# Assay type: cell-based, human
# Conditions: HeLa cells, hypoxic conditions (1% O2), 24-48 hours, VEGF in conditioned media; read-out: ELISA EC50
# In short: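 HeLa cells kept 24-48 h under hypoxia (1% O2, 5% CO2, nitrogen balance) with or without compound, e.g. seven concentrations; secreted VEGF in conditioned medium quantified by ELISA against a standard curve. Parallel Cell Titer Glo viability under identical conditions excludes cytotoxicity.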
row,Structure (SMILES),EC50 [µM]
1,Cc1ccc(C2c3[nH]c4ccc(Br)cc4c3CCN2C(=O)Oc2ccc(F)cc2)cc1 (centres unmarked) [Compound 403],< 0.008
2,O=C(Oc1ccc(F)cc1)N1CCc2c([nH]c3ccc(Cl)cc23)C1c1ccc(OCC(O)Cn2ccnn2)cc1 (centres unmarked) [Compound 1066],< 0.008

# Same assay, conditions: Homo sapiens, HeLa, read-out: ELISA EC50 μM
row,Structure (SMILES),EC50 [µM]
1,CC1(C)C(=O)NC(=O)N1CCCOc1ccc(C2c3[nH]c4ccc(Cl)cc4c3CCN2C(=O)Oc2ccc(Cl)cc2)cc1 (centres unmarked) [Compound 1671],< 0.008
2,CCN1CCN(C(=O)COc2ccc(C3c4[nH]c5ccc(Cl)cc5c4CCN3C(=O)Oc3ccc(OC)cc3)cc2)CC1 (centres unmarked) [Compound 1028],0.04 to 0.2
3,O=C(Oc1ccc(F)cc1)N1CCc2c([nH]c3ccc(Cl)cc23)C1c1ccc(OCCCCCCNCCCn2ccnc2)cc1 (centres unmarked) [Compound 779],0.04 to 0.2
4,O=C(Oc1ccc(Cl)cc1)N1CCc2c([nH]c3ccc(Cl)cc23)C1c1ccc(OCCCCCCN2CCCC2)cc1 (centres unmarked) [Compound 783],< 0.008
5,CC(C)NCCCOc1ccc(C2c3[nH]c4ccc(Cl)cc4c3CCN2C(=O)Oc2ccc(Cl)cc2)cc1 (centres unmarked) [Compound 953],0.008 to 0.04
6,O=C(Oc1ccc(F)cc1)N1CCc2c([nH]c3ccc(Cl)cc23)C1c1ccc(OCC(O)CN2CCOCC2)cc1 (centres unmarked) [Compound 638],< 0.008
7,O=C(Oc1ccc(Cl)cc1)N1CCc2c([nH]c3ccc(Cl)cc23)C1c1ccc(OCCCCCCN2CCCCC2)cc1 (centres unmarked) [Compound 787],< 0.008
8,CN1CCN(CC(O)COc2ccc(C3c4[nH]c5ccc(Cl)cc5c4CCN3C(=O)Oc3ccc(Cl)cc3)cc2)CC1 (centres unmarked) [Compound 970],0.008 to 0.04
9,O=C(Oc1ccc(F)cc1)N1CCc2c([nH]c3ccc(Cl)cc23)C1c1ccc(OCCCCN2CCCC2)cc1 (centres unmarked) [Compound 736],< 0.008
10,O=C(Oc1ccc(F)cc1)N1CCc2c([nH]c3ccc(Cl)cc23)C1c1ccc(OCCCCCCNCCO)cc1 (centres unmarked) [Compound 772],< 0.008
11,CCN(CC)CCCOc1ccc(C2c3[nH]c4ccc(Cl)cc4c3CCN2C(=O)Oc2ccc(Cl)cc2)cc1 (centres unmarked) [Compound 946],0.008 to 0.04
12,O=C(Oc1ccc(Cl)cc1)N1CCc2c([nH]c3ccc(Cl)cc23)C1c1ccc(OCCCCNCCO)cc1 (centres unmarked) [Compound 699],0.008 to 0.04
13,CN1CCC(COc2ccc(C3c4[nH]c5ccc(Cl)cc5c4CCN3C(=O)Oc3ccc(Cl)cc3)cc2)CC1 (centres unmarked) [Compound 1099],0.008 to 0.04
14,CN1CCCC(COc2ccc(C3c4[nH]c5ccc(Cl)cc5c4CCN3C(=O)Oc3ccc(Cl)cc3)cc2)C1 (centres unmarked) [Compound 966],0.008 to 0.04
15,CN1CCN(CCCOc2cccc(C3c4[nH]c5ccc(Cl)cc5c4CCN3C(=O)Oc3ccc(F)cc3)c2)CC1 (centres unmarked) [Compound 1113],0.2 to 1
16,COCCN(CCCOc1ccc(C2c3[nH]c4ccc(Cl)cc4c3CCN2C(=O)Oc2ccc(Cl)cc2)cc1)CCOC (centres unmarked) [Compound 916],< 0.008
17,CC(=O)N1CCN(CCCOc2ccc(C3c4[nH]c5ccc(Cl)cc5c4CCN3C(=O)Oc3ccc(Cl)cc3)cc2)CC1 (centres unmarked) [Compound 903],< 0.008
18,O=C(Oc1ccc(Cl)cc1)N1CCc2c([nH]c3ccc(Cl)cc23)C1c1ccc(OCC(O)CN2CCN(CCO)CC2)cc1 (centres unmarked) [Compound 960],0.008 to 0.04
19,COC(=O)[C@H]1CCCN1CCCOc1ccc(C2c3[nH]c4ccc(Cl)cc4c3CCN2C(=O)Oc2ccc(Cl)cc2)cc1 (some centres unmarked) [Compound 1362],< 0.008
20,O=C(Oc1ccc(Cl)cc1)N1CCc2c([nH]c3ccc(Cl)cc23)C1c1ccc(OCCN2CCOCC2)cc1 (centres unmarked) [Compound 331],> 1

# Same assay, conditions: Homo sapiens; HeLa cells, hypoxic conditions (1% O2), 24-48 hours, VEGF in conditioned media; read-out: ELISA EC50
row,Structure (SMILES),EC50 [µM]
1,COc1ccc(C2c3[nH]c4ccc(Cl)cc4c3CCN2C(=O)Oc2ccc(C)cc2)cc1 (centres unmarked) [Compound 17],< 0.008
2,CS(=O)(=O)NCC(O)COc1ccc(C2c3[nH]c4ccc(Cl)cc4c3CCN2C(=O)Oc2ccc(Cl)cc2)cc1 (centres unmarked) [Compound 849],0.008 to 0.04
3,O=C(Oc1ccc(Cl)cc1)N1CCc2c([nH]c3ccc(Cl)cc23)C1c1ccc(N2CCCC2)cc1 (centres unmarked) [Compound 984],0.2 to 1
4,COc1ccc(C2c3[nH]c4ccc(Cl)cc4c3CCN2C(=O)Oc2ccccc2Cl)cc1 (centres unmarked) [Compound 587],0.04 to 0.2
5,O=C(Oc1ccc(Cl)cc1)N1CCc2c([nH]c3ccc(Cl)cc23)C1c1ccc(OCCCCCCn2ccnc2)cc1 (centres unmarked) [Compound 790],< 0.008
6,Cc1ccc(OC(=O)N2CCc3c([nH]c4ccc(Cl)cc34)C2c2ccc(OCCCn3ccnc3)cc2)cc1 (centres unmarked) [Compound 900],< 0.008
7,O=C(Oc1ccccc1)N1CCc2c([nH]c3ccc(Cl)cc23)C1c1ccc(OCCCCl)cc1 (centres unmarked) [Compound 710],< 0.008
8,O=C(Oc1ccc(F)cc1)N1CCc2c([nH]c3ccc(Cl)cc23)C1c1ccc(F)cc1 (centres unmarked) [Compound 452],0.008 to 0.04
9,NC(=O)COc1ccc(C2c3[nH]c4ccc(Cl)cc4c3CCN2C(=O)Oc2ccccc2Cl)cc1 (centres unmarked) [Compound 1213],0.04 to 0.2
10,O=C(Oc1ccc(F)cc1)N1CCc2c([nH]c3ccc(Cl)cc23)C1c1ccc(OCCCn2ccnn2)cc1 (centres unmarked) [Compound 995],< 0.008
11,COc1ccc(C2c3[nH]c4ccc(Cl)cc4c3CCN2C(=O)Oc2ccc(Cl)cc2)cc1OCCCCn1cncn1 (centres unmarked) [Compound 1091],0.2 to 1
12,O=C(Oc1ccc(F)cc1)N1CCc2c([nH]c3ccc(Cl)cc23)C1c1ccc(OCC(O)Cn2ccnc2)cc1 (centres unmarked) [Compound 922],< 0.008
13,O=C(Oc1ccccc1)N1CCc2c([nH]c3ccc(Cl)cc23)C1c1ccc(OCC2OCCO2)cc1 (centres unmarked) [Compound 1050],< 0.008
14,O=C(Oc1ccccc1Cl)N1CCc2c([nH]c3ccc(Cl)cc23)C1c1ccc(OCC(O)CO)cc1 (centres unmarked) [Compound 628],0.04 to 0.2
15,COc1ccc(C2c3[nH]c4ccc(Cl)cc4c3CCN2C(=O)Oc2ccc(Cl)cc2)cc1OCCCn1cncn1 (centres unmarked) [Compound 1090],0.2 to 1
16,COc1ccc(C2c3[nH]c4ccc(C)cc4c3CCN2C(=O)Oc2ccc(Cl)cc2)cc1 (centres unmarked) [Compound 341],0.04 to 0.2
17,O=C(Oc1ccc(Cl)cc1)N1CCc2c([nH]c3ccc(Cl)cc23)C1c1ccc(NC2CCOCC2)cc1 (centres unmarked) [Compound 440],< 0.008
18,O=C(Oc1ccc(Cl)cc1)N1CCc2c([nH]c3ccc(Cl)cc23)[C@H]1c1ccc(OCCCCl)cc1 [Compound 1126],0.2 to 1
19,O=C(Oc1ccc(Cl)cc1)N1CCc2c([nH]c3ccc(Cl)cc23)[C@@H]1c1ccc(OCCCO)cc1 [Compound 1250],< 0.008
20,COCCOCCOc1ccc(C2c3[nH]c4ccc(Cl)cc4c3CCN2C(=O)Oc2ccc(F)cc2)cc1 (centres unmarked) [Compound 673],0.008 to 0.04
21,O=C(Oc1ccccc1)N1CCc2c([nH]c3ccc(Br)cc23)C1c1ccccc1 (centres unmarked) [Compound 76],0.008 to 0.04
22,COC(=O)c1ccc(C2c3[nH]c4ccc(Cl)cc4c3CCN2C(=O)Oc2ccccc2Cl)cc1 (centres unmarked) [Compound 590],0.008 to 0.04
23,CC1(C)OC[C@H](CCOc2ccc([C@H]3c4[nH]c5ccc(Cl)cc5c4CCN3C(=O)Oc3ccc(Cl)cc3)cc2)O1 [Compound 1203],< 0.008
24,O=C(Oc1ccc(Cl)cc1)N1CCc2c([nH]c3ccc(Cl)cc23)[C@@H]1c1ccc(OCCC(O)Cn2ccnn2)cc1 (some centres unmarked) [Compound 1281],< 0.008
25,Cc1ccc(OC(=O)N2CCc3c([nH]c4ccc(Cl)cc34)[C@@H]2c2ccc(OCCCn3cncn3)cc2)cc1 [Compound 1182],< 0.008
26,CC1(C)OC[C@H](COc2ccc([C@H]3c4[nH]c5ccc(Cl)cc5c4CCN3C(=O)Oc3ccc(Cl)cc3)cc2)O1 [Compound 1227],< 0.008

# Same assay, conditions: Homo sapiens; HeLa cells, hypoxic conditions (1% O2), VEGF ELISA of conditioned media; read-out: ELISA EC50
row,Structure (SMILES),EC50 [µM]
1,N#Cc1cn(CCOc2ccc(C3c4[nH]c5ccc(Cl)cc5c4CCN3C(=O)Oc3ccc(Cl)cc3)cc2)nc1N (centres unmarked) [Compound 1421],< 0.008
2,O=C(Oc1ccc(Cl)cc1)N1CCc2c([nH]c3ccc(Cl)cc23)C1c1ccc(OCC(O)CNS(=O)(=O)C2CC2)cc1 (centres unmarked) [Compound 1567],0.04 to 0.2
3,C#CCOc1ccc([C@H]2c3[nH]c4ccc(Cl)cc4c3CCN2C(=O)Oc2ccc(Cl)cc2)cc1 [Compound 1612],< 0.008
4,CCC(=O)NCC(O)CCOc1ccc([C@H]2c3[nH]c4ccc(Cl)cc4c3CCN2C(=O)Oc2ccc(Cl)cc2)cc1 (some centres unmarked) [Compound 1625],< 0.008
5,O=C(Oc1ccc(Cl)cc1)N1CCc2c([nH]c3ccc(Cl)cc23)[C@H]1c1ccc(OCC[C@H](O)CO)cc1 [Compound 1330],> 1
6,CC(=O)Oc1ccc([C@H]2c3[nH]c4ccc(Cl)cc4c3CCN2C(=O)Oc2ccc(Cl)cc2)cc1 [Compound 1538],< 0.008
7,COC(=O)NCC(O)CCOc1ccc([C@H]2c3[nH]c4ccc(Cl)cc4c3CCN2C(=O)Oc2ccc(Cl)cc2)cc1 (some centres unmarked) [Compound 1635],< 0.008
8,O=C(Oc1ccc(Cl)cc1)N1CCc2c([nH]c3ccc(Cl)cc23)[C@@H]1c1ccc(OC2OC(CO)C(O)C(O)C2O)cc1 (some centres unmarked) [Compound 1695],0.2 to 1
9,CC(C)S(=O)(=O)NCC(O)COc1ccc(C2c3[nH]c4ccc(Cl)cc4c3CCN2C(=O)Oc2ccc(Cl)cc2)cc1 (centres unmarked) [Compound 1566],0.04 to 0.2
10,CC1(C)OC[C@H](CCOc2ccc([C@@H]3c4[nH]c5ccc(Cl)cc5c4CCN3C(=O)Oc3ccc(Cl)cc3)cc2)O1 [Compound 1331],> 1
11,[H]/N=c1\scnn1CCOc1ccc(C2c3[nH]c4ccc(Cl)cc4c3CCN2C(=O)Oc2ccc(F)cc2)cc1 (centres unmarked) [Compound 1415],< 0.008
12,O=C(Oc1ccc(Cl)cc1)N1CCc2c([nH]c3ccc(Cl)cc23)[C@@H]1c1ccc(Oc2ncccn2)cc1 [Compound 1570],< 0.008
13,O=C(Oc1ccc(Cl)cc1)N1CCc2c([nH]c3ccc(Cl)cc23)C1c1ccc(OC2CCOCC2)cc1 (centres unmarked) [Compound 1578],< 0.008
14,CCS(=O)(=O)NCC(O)COc1ccc(C2c3[nH]c4ccc(Cl)cc4c3CCN2C(=O)Oc2ccc(Cl)cc2)cc1 (centres unmarked) [Compound 1565],0.008 to 0.04
15,C#CCCCOc1ccc([C@H]2c3[nH]c4ccc(Cl)cc4c3CCN2C(=O)Oc2ccc(Cl)cc2)cc1 [Compound 1613],< 0.008
16,CCOC(=O)NC[C@H](O)COc1ccc([C@H]2c3[nH]c4ccc(Cl)cc4c3CCN2C(=O)Oc2ccc(F)cc2)cc1 [Compound 1663],< 0.008
17,COC(=O)NCC(O)CCOc1ccc([C@H]2c3[nH]c4ccc(Cl)cc4c3CCN2C(=O)Oc2ccc(C)cc2)cc1 (some centres unmarked) [Compound 1642],< 0.008
